From patent publication US4626535A, “Cephalosporins” (Bayer Aktiengesellschaft, priority 1983, dated 1986) come the findings set out here.

≈ marks a conversion by molar mass, not a printed value. Where only a bound is given, the exact number is not on record here.

Assay in all cases: in vitro MIC comparison in Isosensitest agar
Holding throughout (format): cell-based

Assay [1] has as its system Staph. 25470. Conditions: Staphylococcus. From the text: (§1) The compound of Example 21 was compared in vitro with Cefotaxim (MIC-comparison in Isosensitest agar): […]
The subject of assay [2] is Enterobacter Cloacae 56US. Conditions: CLOACAE56US.
Source text: as §1

For assay [3], the system named is Staph. 1756. Conditions: Staphylococcus.
Source text: as §1

Assay [4] concerns Psdm. 7035. The settings on record: Pseudomonas.
Source text: as §1

The subject of assay [5] is Staph. E. The settings on record: Staphylococcus.
Source text: as §1

Assay [6] concerns Staph. 133. The settings on record: Staphylococcus.
Source text: as §1

The subject of assay [7] is Psdm. Walter. Conditions: Pseudomonas.
Source text: as §1

With `C/C=C(\C(=O)NC1C(=O)N2C(C(=O)[O-])=C(C[n+]3ccccc3)CSC12)c1nsc(N)n1` (centres unmarked) [Example 21, 7-(1-(5-Amino-1,2,4-thiadiazol-3-yl)-1(Z)-propenecarboxamido)-3-pyridiniummethyl-3-cephem-4-carboxylate], the minimal inhibitory concentration (MIC) in assay [1] turned out to be 8 µg/mL (≈ 17.4 µM); in assay [2], 64 µg/mL (≈ 140 µM); in assay [3], 8 µg/mL (≈ 17.4 µM); in assay [4], 8 µg/mL (≈ 17.4 µM); in assay [5] it was 0.125 µg/mL (≈ 0.273 µM); in assay [6], 0.5 µg/mL (≈ 1.09 µM). For the same compound, the minimal inhibitory concentration (MIC) in assay [7] lay within 8 to 16 µg/mL (≈ 17.4 to 34.9 µM).

Regarding `CO/N=C(\C(=O)N[C@@H]1C(=O)N2C(C(=O)O)=C(COC(C)=O)CS[C@H]12)c1csc(N)n1` [Cefotaxim], the MIC in assay [1] is above 128 µg/mL; in assay [2] it was above 128 µg/mL; in assay [3], 128 µg/mL (≈ 281 µM); in assay [4] it was 16 µg/mL (≈ 35.1 µM); in assay [5], 0.5 µg/mL (≈ 1.1 µM); in assay [6] it was 1 µg/mL (≈ 2.2 µM). For the same compound, in assay [7], inhibition of growth (MIC) required 16 µg/mL (≈ 35.1 µM).

One may read the MIC as the lowest concentration found to suppress growth. A low value points to inhibition by little substance.
